The text below walks through data of BindingDB's records for doi:10.1080/14756360701546413 (Dumlupinar University, 2008).

This experiment concerns the target Glutathione-disulfide reductase (Escherichia coli O157:H7, UniProt A0A0H3JIZ9). The experiment in a line: Enzyme Assay. How it is done:
The enzyme activities in the absence of drugs or chemicals were taken as 100%. For each drug or chemical, an activity%-(drug) graph was drawn and drug concentrations producing 50% inhibition were calculated for the inhibitors.

Sequence of Glutathione-disulfide reductase (A0A0H3JIZ9 whole entry): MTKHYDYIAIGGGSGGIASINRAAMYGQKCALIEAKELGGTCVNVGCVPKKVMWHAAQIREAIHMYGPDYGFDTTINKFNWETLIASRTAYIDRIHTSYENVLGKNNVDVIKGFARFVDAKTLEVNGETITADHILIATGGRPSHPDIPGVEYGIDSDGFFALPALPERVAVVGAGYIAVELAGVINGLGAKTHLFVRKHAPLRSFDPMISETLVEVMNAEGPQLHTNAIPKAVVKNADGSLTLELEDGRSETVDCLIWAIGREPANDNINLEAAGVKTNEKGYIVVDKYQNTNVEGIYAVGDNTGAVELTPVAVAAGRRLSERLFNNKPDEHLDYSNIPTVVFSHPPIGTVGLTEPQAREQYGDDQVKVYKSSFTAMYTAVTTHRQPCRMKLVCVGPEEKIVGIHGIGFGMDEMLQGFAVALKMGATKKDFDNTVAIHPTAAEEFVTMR

Take `CC(CCC(=O)Nc1nnc(S(N)(=O)=O)s1)C1CCC2C3CCC4CC(O)CCC4(C)C3CCC12C` (centres undefined) [Sulfonamide derivative, 1]: inhibition was half-maximal at 47.1 µM (IC50) and the affinity corresponds to a Ki of 72.3 µM.
On to `CC(CCC(=O)Nc1nnc(S(N)(=O)=O)s1)C1CCC2C3C(O)CC4CC(O)CCC4(C)C3CCC12C` (centres undefined) [Sulfonamide derivative, 2], for which the half-inhibitory concentration (IC50) worked out at 4.5 µM and the affinity, expressed as Ki, was 6.1 µM.
